Columns and labels:
NLRP1 inflammasome = assay: IL-1β secretion in macrophages challenged with L18-MDP (FIG. 7); format: cell-based, human; settings: 20, 100, 350 μM, L18-MDP 100 μg/mL 16 hours, secreted IL-1β
Excerpt: In vitro stimulation of human macrophages.

[1] = tested on: inflammasome activation by UVB; assay: Dermal UVB inflammatory challenge in healthy volunteers after intradermal dosing; format: in vivo, human
Method: This is a single-center, inflammatory challenge study in healthy volunteers, to evaluate inflammasome activation by UVB in healthy volunteers. Healthy volunteers will undergo a topical UVB challenge after intradermal dosing with BT032.
UV-B Challenge+BT032 (n=9; 3 Placebo, 6 Active): • Screening: 1 hour admission • Study day (day −1 to 1): 24 hours admission (baseline assessments, challenge, and 2, 4 hr blister, skin assessments) • Follow-up visit 1 (day 2): 1 hour admission (24 hr blister) • End of study visit (+7 days): 1 hour admission
Investigational drug (BT032)+UVB challenge. As part of the screening assessments, the subject's Fitzpatrick skin photo type is determined (type I-VI). The subject is first exposed to 6 different doses of UV-B, to determine the Minimal Erythemic Dose (MED) expressed in J/cm^2, using the six different slots of the UV-B lamp. Twenty-four hours (±2 hours) after the exposure of the 6 doses, the erythemic response of the skin to UV-B is assessed by two observers. The MED is determined visually, by observing which dose produces the first clearly discernible erythema. On the treatment days, the subject's skin is exposed to two minimal erythema doses (2MED) of UVB.
Subjects Groups. A total of 9 healthy volunteers will be enrolled. These subjects will undergo an UVB challenge after dosing with BT032. […]

NLRP3 inflammasome = NLRP3 inflammasome (Mus musculus, UniProt Q8R4B8); assay: IL-1β secretion (ELISA) in LPS-primed iBMDMs stimulated with silica or nigericin; format: cell-based, murine (C57BL/6); parameters: endogenous in cells; host or cells: immortalized wild-type C57BL/6 bone-marrow derived macrophages (iBMDMs), LPS-primed; settings: compared with probenecid in DMSO or PBS
Chain of NLRP3 inflammasome (Q8R4B8 whole entry): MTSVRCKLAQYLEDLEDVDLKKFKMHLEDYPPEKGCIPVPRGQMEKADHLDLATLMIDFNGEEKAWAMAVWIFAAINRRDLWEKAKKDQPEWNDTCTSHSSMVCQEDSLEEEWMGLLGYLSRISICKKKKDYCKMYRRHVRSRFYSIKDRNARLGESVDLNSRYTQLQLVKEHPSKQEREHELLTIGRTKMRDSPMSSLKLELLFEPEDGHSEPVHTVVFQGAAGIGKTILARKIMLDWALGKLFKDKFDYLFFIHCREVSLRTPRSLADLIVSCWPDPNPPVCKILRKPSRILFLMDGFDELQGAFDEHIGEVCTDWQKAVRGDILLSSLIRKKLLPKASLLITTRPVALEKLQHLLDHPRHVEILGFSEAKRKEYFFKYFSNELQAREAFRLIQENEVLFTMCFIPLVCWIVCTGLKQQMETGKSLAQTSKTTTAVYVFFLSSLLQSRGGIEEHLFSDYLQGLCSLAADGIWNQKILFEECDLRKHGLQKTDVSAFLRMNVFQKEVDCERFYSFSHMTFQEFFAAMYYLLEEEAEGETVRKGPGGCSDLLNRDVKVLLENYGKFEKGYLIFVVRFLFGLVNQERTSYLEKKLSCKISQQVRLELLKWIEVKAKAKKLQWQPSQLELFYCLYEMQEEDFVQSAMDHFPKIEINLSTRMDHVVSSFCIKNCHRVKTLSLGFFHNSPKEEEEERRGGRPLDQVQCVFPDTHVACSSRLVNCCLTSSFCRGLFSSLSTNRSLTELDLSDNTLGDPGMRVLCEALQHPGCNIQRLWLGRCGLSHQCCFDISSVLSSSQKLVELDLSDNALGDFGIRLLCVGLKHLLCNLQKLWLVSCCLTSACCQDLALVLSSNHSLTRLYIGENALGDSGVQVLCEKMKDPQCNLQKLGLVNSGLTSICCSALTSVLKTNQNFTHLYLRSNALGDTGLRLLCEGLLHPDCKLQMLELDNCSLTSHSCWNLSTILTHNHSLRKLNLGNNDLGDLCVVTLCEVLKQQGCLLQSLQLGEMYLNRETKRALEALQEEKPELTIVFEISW
Method: In vitro stimulation of murine macrophages. Immortalized wild-type C57BL/6 bone-marrow derived macrophages (iBMDMs) were grown in DMEM supplemented with 10% heat inactivated FBS and 2 mM glutamine. iBMDMs were seeded in 96-well plates 24 hours prior incubation with lipopolysaccharide (LPS; 100 ng/mL) for 3 hours. Cells were then incubated with a control probenecid compound (probenecid dissolved in DMSO (Prob/D), probenecid dissolved in PBS (Prob/P)) or one of the probenecid analogs of the present technology (BT032, BT132, BT133, BT134, BT135, BT136, BT137, BT138, BT139, or BT140) at concentrations of 300 μM, 150 μM, 30 μM, or 3 μM 1 hour prior to stimulation with NLRP3 inflammasome activators, silica ([…]) or nigericin (6 μM). After an additional 6 hours, cell supernatants were collected and levels of IL-1β were quantified by ELISA. These experiments were run in triplicate three times.

SMILES: CCCN(CCC)S(=O)(=O)c1ccc(-c2ccc(CCCC(=O)O)cc2)cc1 [BT032, 4-(4′-(N,N-dipropylsulfamoyl)-[1,1′-biphenyl]-4-yl)butanoic acid]
- NLRP1 (L18-MDP)-induced inflammasome activation (NLRP1 inflammasome): dose-dependently inhibited
- levels of inflammasome-driven cytokines and/or inflammasome proteins versus non-treated controls ([1]; IL-1β, IL-18, IL-6, TNF, NLRP3, ASC, NLRP1): reduced levels
- activation of inflammasomes versus non-treated controls ([1]; intradermal dosing, UVB 2MED): reduction in the activation of inflammasomes
- potency versus control probenecid compounds (IL-1β secretion) (NLRP3 inflammasome): more potent than the control probenecid compounds

— patent US20260176232A1, “PROBENECID COMPOUNDS FOR THE TREATMENT OF INFLAMMASOME-MEDIATED DERMATOLOGICAL CONDITIONS” (Bacainn Biotherapeutics, Ltd., priority 2022, published 2026)
